In ChEMBL document CHEMBL4138146, “A Schmidt rearrangement-mediated synthesis of novel tetrahydro-benzo[1,4]diazepin-5-ones as potential anticancer and antiprotozoal agents” (Eur J Med Chem, 2017):

Legend:
Assay type in all cases: functional
CCRF-CEM = assay: Growth inhibition of human CCRF-CEM cells assessed as cell growth at 10 uM incubated for 48 hrs by sulforhodamine B assay relative to control; settings: read-out: Activity
UO-31 = assay: Growth inhibition of human UO31 cells assessed as cell growth at 10 uM incubated for 48 hrs by sulforhodamine B assay relative to control; settings: UO-31, 48 h, read-out: Activity
SN12C = assay: Growth inhibition of human SN12C cells assessed as cell growth at 10 uM incubated for 48 hrs by sulforhodamine B assay relative to control; settings: read-out: Activity
SK-OV-3 = assay: Growth inhibition of human SKOV3 cells assessed as cell growth at 10 uM incubated for 48 hrs by sulforhodamine B assay relative to control; settings: SK-OV-3, 48 h, read-out: Activity
RPMI-8226 = assay: Growth inhibition of human RPMI8226 cells assessed as cell growth at 10 uM incubated for 48 hrs by sulforhodamine B assay relative to control; settings: RPMI-8226, 48 h, read-out: Activity
HT-29 = assay: Growth inhibition of human HT-29 cells assessed as cell growth at 10 uM incubated for 48 hrs by sulforhodamine B assay relative to control; settings: HT-29, 48 h, read-out: Activity
Malme-3M = assay: Growth inhibition of human MALME-3M cells assessed as cell growth at 10 uM incubated for 48 hrs by sulforhodamine B assay relative to control; settings: read-out: Activity
A498 = assay: Growth inhibition of human A498 cells assessed as cell growth at 10 uM incubated for 48 hrs by sulforhodamine B assay relative to control; settings: A498, 48 h, read-out: Activity
COLO 205 = assay: Growth inhibition of human COLO205 cells assessed as cell growth at 10 uM incubated for 48 hrs by sulforhodamine B assay relative to control; settings: COLO 205, 48 h, read-out: Activity
OVCAR-4 = assay: Growth inhibition of human OVCAR4 cells assessed as cell growth at 10 uM incubated for 48 hrs by sulforhodamine B assay relative to control; settings: OVCAR-4, 48 h, read-out: Activity
LOX IMVI = assay: Growth inhibition of human LOXIMVI cells assessed as cell growth at 10 uM incubated for 48 hrs by sulforhodamine B assay relative to control; settings: read-out: Activity
MDA-MB-468 = assay: Growth inhibition of human MDA-MB-468 cells assessed as cell growth at 10 uM incubated for 48 hrs by sulforhodamine B assay relative to control; settings: MDA-MB-468, 48 h, read-out: Activity
TK-10 = assay: Growth inhibition of human TK10 cells assessed as cell growth at 10 uM incubated for 48 hrs by sulforhodamine B assay relative to control; settings: TK-10, 48 h, read-out: Activity
OVCAR-8 = assay: Growth inhibition of human OVCAR8 cells assessed as cell growth at 10 uM incubated for 48 hrs by sulforhodamine B assay relative to control; settings: OVCAR-8, 48 h, read-out: Activity
NCI/ADR-RES = assay: Growth inhibition of human NCI/ADR-RES cells assessed as cell growth at 10 uM incubated for 48 hrs by sulforhodamine B assay relative to control; settings: read-out: Activity
A549 = assay: Growth inhibition of human A549/ATCC cells assessed as cell growth at 10 uM incubated for 48 hrs by sulforhodamine B assay relative to control; settings: A549, 48 h, read-out: Activity
OVCAR-5 = assay: Growth inhibition of human OVCAR5 cells assessed as cell growth at 10 uM incubated for 48 hrs by sulforhodamine B assay relative to control; settings: OVCAR-5, 48 h, read-out: Activity
CAKI-1 = assay: Growth inhibition of human Caki1 cells assessed as cell growth at 10 uM incubated for 48 hrs by sulforhodamine B assay relative to control; settings: CAKI-1, 48 h, read-out: Activity
HOP-62 = assay: Growth inhibition of human HOP62 cells assessed as cell growth at 10 uM incubated for 48 hrs by sulforhodamine B assay relative to control; settings: HOP-62, 48 h, read-out: Activity
ACHN = assay: Growth inhibition of human ACHN cells assessed as cell growth at 10 uM incubated for 48 hrs by sulforhodamine B assay relative to control; settings: read-out: Activity
SK-MEL-2 = assay: Growth inhibition of human SK-MEL-2 cells assessed as cell growth at 10 uM incubated for 48 hrs by sulforhodamine B assay relative to control; settings: SK-MEL-2, 48 h, read-out: Activity
HOP-92 = assay: Growth inhibition of human HOP92 cells assessed as cell growth at 10 uM incubated for 48 hrs by sulforhodamine B assay relative to control; settings: HOP-92, 48 h, read-out: Activity
DU-145 = assay: Growth inhibition of human DU145 cells assessed as cell growth at 10 uM incubated for 48 hrs by sulforhodamine B assay relative to control; settings: DU-145, 48 h, read-out: Activity
RXF 393 = assay: Growth inhibition of human RXF393 cells assessed as cell growth at 10 uM incubated for 48 hrs by sulforhodamine B assay relative to control; settings: RXF 393, 48 h, read-out: Activity
SF-539 = assay: Growth inhibition of human SF539 cells assessed as cell growth at 10 uM incubated for 48 hrs by sulforhodamine B assay relative to control; settings: SF-539, 48 h, read-out: Activity
SNB-75 = assay: Growth inhibition of human SNB75 cells assessed as cell growth at 10 uM incubated for 48 hrs by sulforhodamine B assay relative to control; settings: SNB-75, 48 h, read-out: Activity
BT-549 = assay: Growth inhibition of human BT549 cells assessed as cell growth at 10 uM incubated for 48 hrs by sulforhodamine B assay relative to control; settings: BT-549, 48 h, read-out: Activity
NCI-H460 = assay: Growth inhibition of human NCI-H460 cells assessed as cell growth at 10 uM incubated for 48 hrs by sulforhodamine B assay relative to control; settings: NCI-H460, 48 h, read-out: Activity
NCI-H226 = assay: Growth inhibition of human NCI-H226 cells assessed as cell growth at 10 uM incubated for 48 hrs by sulforhodamine B assay relative to control; settings: NCI-H226, 48 h, read-out: Activity
NCI-H322M = assay: Growth inhibition of human NCI-H322M cells assessed as cell growth at 10 uM incubated for 48 hrs by sulforhodamine B assay relative to control; settings: read-out: Activity
NCI-H522 = assay: Growth inhibition of human NCI-H522 cells assessed as cell growth at 10 uM incubated for 48 hrs by sulforhodamine B assay relative to control; settings: NCI-H522, 48 h, read-out: Activity
PC-3 = assay: Growth inhibition of human PC3 cells assessed as cell growth at 10 uM incubated for 48 hrs by sulforhodamine B assay relative to control; settings: PC-3, 48 h, read-out: Activity
SK-MEL-28 = assay: Growth inhibition of human SK-MEL-28 cells assessed as cell growth at 10 uM incubated for 48 hrs by sulforhodamine B assay relative to control; settings: SK-MEL-28, 48 h, read-out: Activity

For `O=C1NCC(c2cc3ccccc3[nH]c2=O)Nc2ccccc21` (stereo unspecified), the growth at 10 µM (CCRF-CEM) was 110%, the growth at 10 µM (UO-31) was 76.8% and the growth at 10 µM (SN12C) was 99.7%. The growth at 10 µM (SK-OV-3) was 89.9%, the growth at 10 µM (RPMI-8226) was 106% and the growth at 10 µM (HT-29) was 98.3%. For the same compound, the growth at 10 µM (Malme-3M) was 96.8%, the growth at 10 µM (A498) was 104% and the growth at 10 µM (COLO 205) was 107%. The growth at 10 µM (OVCAR-4) was 104%, the growth at 10 µM (LOX IMVI) was 98.5% and the growth at 10 µM (MDA-MB-468) was 97.5%. For the same compound, the growth at 10 µM (TK-10) was 87.8%, the growth at 10 µM (OVCAR-8) was 103% and the growth at 10 µM (NCI/ADR-RES) was 111%. For the same compound, the growth at 10 µM (A549) was 92.4%, the growth at 10 µM (OVCAR-5) was 91.2% and the growth at 10 µM (CAKI-1) was 88.1%. The growth at 10 µM (HOP-62) was 90.6%, the growth at 10 µM (ACHN) was 99.7% and the growth at 10 µM (SK-MEL-2) was 100%. For the same compound, the growth at 10 µM (HOP-92) was 104%, the growth at 10 µM (DU-145) was 111% and the growth at 10 µM (RXF 393) was 90.7%. For the same compound, the growth at 10 µM (SF-539) was 96.5%, the growth at 10 µM (SNB-75) was 99.6% and the growth at 10 µM (BT-549) was 96.3%. For the same compound, the growth at 10 µM (NCI-H460) was 105%, the growth at 10 µM (NCI-H226) was 98.4% and the growth at 10 µM (NCI-H322M) was 100%. The growth at 10 µM (NCI-H522) was 88.6%, the growth at 10 µM (PC-3) was 93.2% and the growth at 10 µM (SK-MEL-28) was 103%.
`O=C1CC(c2cc3ccc4ccccc4c3[nH]c2=O)Nc2ccccc21` (stereo unspecified) gave a growth at 10 µM (CCRF-CEM) of 101%, a growth at 10 µM (UO-31) of 95.4% and a growth at 10 µM (SN12C) of 90.7%. The growth at 10 µM (SK-OV-3) was 98.8%, the growth at 10 µM (RPMI-8226) was 99.7% and the growth at 10 µM (HT-29) was 99.1%. The growth at 10 µM (Malme-3M) was 84.7%, the growth at 10 µM (A498) was 115% and the growth at 10 µM (COLO 205) was 86.7%. It also gave a growth at 10 µM (OVCAR-4) of 87.8%, a growth at 10 µM (LOX IMVI) of 84% and a growth at 10 µM (MDA-MB-468) of 91.2%. The growth at 10 µM (TK-10) was 116%, the growth at 10 µM (OVCAR-8) was 110% and the growth at 10 µM (NCI/ADR-RES) was 108%. For the same compound, the growth at 10 µM (A549) was 92.4%, the growth at 10 µM (OVCAR-5) was 114% and the growth at 10 µM (CAKI-1) was 86%. It also gave a growth at 10 µM (HOP-62) of 91.1%, a growth at 10 µM (ACHN) of 106% and a growth at 10 µM (SK-MEL-2) of 96.2%. The growth at 10 µM (HOP-92) was 104%, the growth at 10 µM (DU-145) was 84.3% and the growth at 10 µM (RXF 393) was 110%. For the same compound, the growth at 10 µM (SF-539) was 82.2%, the growth at 10 µM (SNB-75) was 102% and the growth at 10 µM (BT-549) was 69.4%. It also gave a growth at 10 µM (NCI-H460) of 81.1%, a growth at 10 µM (NCI-H226) of 92.5% and a growth at 10 µM (NCI-H322M) of 108%. The growth at 10 µM (NCI-H522) was 89.2%, the growth at 10 µM (PC-3) was 102% and the growth at 10 µM (SK-MEL-28) was 106%.
